# Like-named read-outs stand apart in the source and are kept apart here. Where a SMILES comes first, the peptide text is derived from it.
# How the values were obtained:
# rat apelin receptor-EGFP [1] = biological target: T1, rat apelin receptor-EGFP (Rattus norvegicus, UniProt Q9JHG3); test: [125I]pE13F radioligand binding on CHO membrane preparations
# T1 construct: expressed in transfected cells
# T1 sequence (Q9JHG3 1-377): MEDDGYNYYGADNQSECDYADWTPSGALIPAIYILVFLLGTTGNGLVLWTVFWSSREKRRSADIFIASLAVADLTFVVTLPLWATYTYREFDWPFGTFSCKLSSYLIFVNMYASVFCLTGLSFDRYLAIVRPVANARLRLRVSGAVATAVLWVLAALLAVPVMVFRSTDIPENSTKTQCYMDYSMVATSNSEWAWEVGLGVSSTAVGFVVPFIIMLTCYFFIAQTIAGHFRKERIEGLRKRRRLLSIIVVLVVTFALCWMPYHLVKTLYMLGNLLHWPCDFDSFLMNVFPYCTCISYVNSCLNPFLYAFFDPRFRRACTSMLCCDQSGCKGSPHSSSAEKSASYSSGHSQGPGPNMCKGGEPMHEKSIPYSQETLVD
# Protocol: Crude membrane preparation from CHO stably expressing the wild-type rat apelin receptor-EGFP, were prepared as previously described (39). […] The reaction was stopped by adding ice-cold binding buffer and filtered through glass microfiber filters (Whatman GF/C filters). Radioactivity was counted in Wizard 1470 Wallac gamma counter (Perkin Elmer, Turku, Finland).
# rat apelin receptor-EGFP [2] = biological target: T1, rat apelin receptor-EGFP; test: Inhibition of forskolin-induced cAMP production (HTRF); format: cell-based
# Protocol: cAMP was quantified using the cAMP dynamic 2 assay kit (Cisbio Bioassays, Codolet, France) based on homogeneous time-resolved fluorescence (HTRF) technology. The stimulation was done in the stimulation buffer (HBSS, 5 mM Hepes, 0.1% BSA stabilizer, 1 mM IBMX, pH 7.4). Briefly, 2,000/well CHO cells stably expressing the rat apelin receptor-EGFP were added into 384-well plate and stimulated with 10^−6 M forskolin (FSK) and increasing concentrations (10^−14 to 10^−4 M) of apelins or its analogs for 30 min at room temperature. Cells were then lyzed, and cAMP levels were determined following manufacturer instructions.
# in vitro = test: in vitro
# Protocol: For each compound, the stock solution (100 μM in water) was diluted in plasma to a final incubation concentration of 5 μM. The incubation at 37° C. was stopped respectively at to and 4 h by adding one volume of ice cold acetonitrile containing 0.1% trifluoroacetic acid. The sample was vortexed for 1 min and then centrifuged at 4° C. before LC-MS injection of the supernatant. Analyses were performed on a Kinetex RP-C18 column (2.6 μm, 100 Å, 50×4.6 mm) using a linear gradient (solvent B in solvent A, solvent A: water/0.05% TFA; solvent B: acetonitrile; flow rate of 2 mL·min^−1: detection at 358 nm). The percentage of remaining test compound relative to t0 was measured by monitoring the peak area of the chromatogram.
# rat apelin receptor-EGFP [3] = biological target: T1, rat apelin receptor-EGFP; test: Apelin receptor-EGFP internalization, confocal microscopy; format: cell-based
# Protocol: The internalization assay was performed as described previously with CHO cells stably expressing the rat apelin receptor-EGFP (43). […] Cells were then mounted in Aquapolymount (Polysciences, Warrington, Pa., USA) for confocal microscopic analysis (Sec (42) for details).
# rat apelin receptor-EGFP [4] = biological target: T1, rat apelin receptor-EGFP; test: ERK1/2 phosphorylation (Alphascreen); format: cell-based
# Source text: ERK1/2 phosphorylation was then monitored by Alphascreen technology.
# [5] = tested on: rat aortic rings precontracted by noradrenaline (NA); test: Isometric tension of aortic rings precontracted by noradrenaline; settings: for maximal relaxant effect / potency (pD2) of relaxation: precontraction 3×10^−6 M NA
# Protocol: The experiments were performed in rat aortic rings as previously described (39). […] The aortas were cleaned of excess connective tissue and fat and cut into rings of approximately 3-4 mm in length. Special care was taken to avoid damaging the luminal surface of the endothelium. […] One end of the aortic ring was connected to a tissue holder and the other to an isometric force transducer (EMKA Technologies, Paris, France). […] During equilibration period, the rings were washed every 30 min. Then, a first relaxation to acetylcholine (Ach, 10^−4 mol/L) was implemented to check the integrity or the absence of the endothelium in rings precontracted with NA (3×10^−8 mol/L). After rinsing with PSS to baseline tension, rings were equilibrated for 90 min. […] Each concentration of the drug was added at the maximal effect of the precedent concentration. The concentration-response curves were continuously recorded on a PC by means of IOX v 2.4 (EMKA Technologies, Paris) for further analysis (Datanalyst v2.1, EMKA Technologies, Paris).
# [6] = tested on: rat glomerular arterioles precontracted by Angiotensin II (AngII); test: Diameter of glomerular arterioles precontracted by angiotensin II
# Protocol: The left kidney of male rats was prepared for microdissection of arterioles as previously described (44). Glomerular arterioles were isolated under stereomicroscopic observation. The afferent and muscular efferent arterioles were isolated with the glomerulus and identify according their morphology and localization in the inner renal cortex as previously described by Helou et al. […] For these experiments afferent and muscular efferent arterioles were microdissected attached to the gomeruli. […] Arteriolar diameters were measured with Adobe Photoshop CS. Diameters were measured on a distance equal to about 100 μm upstream of the glomerulus and triplicate were performed for each arteriole. Calibration was made using a stage micrometer. The average diameter for each experimental condition was used for statistical analysis.
# [7] = tested on: anaesthesized normotensive Wistar rats; test: Arterial blood pressure after i.v. injection; format: in vivo, rat
# Protocol: The resulting solution was administered to the rats via a catheter inserted into the right femoral vein, and was immediately followed by 0.2 ml Krebs buffer alone to flush the venous catheter. An additional catheter was inserted into the right femoral artery, as previously described (47), for the monitoring of mean arterial blood pressure (MBP) as previously described (48). The arterial catheter was connected to a COBE CDX III pressure transducer (Phymep, Paris, France) linked to the Maclab system (Phymep, Paris, France). HR measurement was triggered by the blood pressure signal. BP was continuously recorded throughout the experiment. […] Mean AUC for each group were then calculated. Unpaired Student's t test was used to determine whether BP observed in response to substances administered […].) has statistically significant difference.
# [8] = tested on: water-deprived or euhydrated mice; test: Plasma AVP after i.c.v. injection (RIA); format: in vivo, mouse
# Protocol: Animals were killed 1 min after the injection, and trunk blood (0.5-1 ml) was collected in chilled tubes containing 50 μl of 0.3 M EDTA pH 7.4. […] RIA kit (Peninsula Laboratories International Inc, San Carlo, USA).
# [9] = [125I]pE13F binding I (nM), Table 2
# [10] = Table 2, read-out: cAMP production IC50
# [11] = 15 nmol i.v., listed as JFM V-01961
compound,measurement,setting,value
CCCCCCCCCCCCCCCC(=O)N[C@@H](CCCCN)C(=O)N[C@@H](Cc1ccccc1)C(=O)N[C@@H](CCCNC(=N)N)C(=O)N[C@@H](CCCNC(=N)N)C(=O)N[C@@H](CCC(N)=O)C(=O)N[C@@H](CCCNC(=N)N)C(=O)N1CCC[C@H]1C(=O)N[C@@H](CCCNC(=N)N)C(=O)N[C@@H](CC(C)C)C(=O)N[C@@H](CO)C(=O)N[C@@H](Cc1c[nH]cn1)C(=O)N[C@@H](CCCCN)C(=O)NCC(=O)N1CCC[C@H]1C(=O)N[C@@H](CCSC)C(=O)N1CCC[C@H]1C(=O)N[C@@H](Cc1ccccc1)C(=O)O [JFM V-0196A],Ki,rat apelin receptor-EGFP [1]; [9],0.76 ± 0.13 nM
same,IC50,rat apelin receptor-EGFP [2]; [10],3.9 ± 1.5 nM
same,starting peptide remaining after 4 h,"in vitro; mouse, plasma",100% of star-ring peptide after 4 h
"CCCC[C@H](NC(=O)[C@@H]1CCCN1C(=O)[C@@H](C)NC(=O)[C@H](CCCCN)NC(=O)C(C)(C)NC(=O)[C@H](CO)NC(=O)[C@@H](CC(C)C)NC(=O)[C@H](CCCNC(=N)N)NC(=O)[C@@H]1CCCN1C(=O)[C@H](CCCNC(=N)N)NC(C)=O)C(=O)N1CCC[C@H]1C(=O)N[C@@H](Cc1ccc(Br)cc1)C(=O)O [P26, N-Acetyl-Arg-Pro-Arg-DLeu-Ser-Aib-Lys-DAla-Pro-Nle-Pro-(4-Br)Phe-OH] (HELM PEPTIDE1{[ac].R.P.R.[dL].S.[Aib].K.[dA].P.[Nle].P.[O=C(O)[C@H](Cc1ccc(Br)cc1)N[*:1]]}$$$$V2.0)",Ki,rat apelin receptor-EGFP [1]; [9],2.11 ± 0.4 nM
same,IC50,"rat apelin receptor-EGFP [2]; 10^−6 M forskolin, read-out: IC50 inhibition of forskolin-induced cAMP production",4.4 ± 0.9 nM
same,IC50,rat apelin receptor-EGFP [2]; [10],2.22 ± 1 nM
same,EC50,"rat apelin receptor-EGFP [3]; 20 min, read-out: EC50 apelin receptor internalization",2.11 ± 1.14 nM
same,ERK1/2 EC50 times higher than K17F,rat apelin receptor-EGFP [4],18 times
same,EC50,"rat apelin receptor-EGFP [4]; 10 min, read-out: EC50 ERK1/2 phosphorylation",71.3 ± 19.1 nM
same,EC50,"rat apelin receptor-EGFP [4]; Table 7, read-out: ERK1/2 phosphorylation EC50",72.1 ± 19.6 nM
same,half-life at 5 μM,"in vitro; mouse, plasma",1.43 h
same,maximal relaxant effect,[5],93±3%
same,potency (pD2) of relaxation,[5],6.27±0.42
CSCC[C@H](NC(=O)[C@@H]1CCCN1C(=O)CNC(=O)[C@H](CCCCN)NC(=O)[C@H](Cc1c[nH]cn1)NC(=O)[C@H](CO)NC(=O)[C@H](CC(C)C)NC(=O)[C@H](CCCNC(=N)N)NC(=O)[C@@H]1CCCN1C(=O)[C@H](CCCNC(=N)N)NC(=O)[C@H](CCC(N)=O)NC(=O)[C@H](CCCNC(=N)N)NC(=O)[C@H](CCCNC(=N)N)NC(=O)[C@H](Cc1ccccc1)NC(=O)[C@H](CCCCN)NC(=O)CCC(F)(F)C(F)(F)C(F)(F)C(F)(F)C(F)(F)C(F)(F)C(F)(F)C(F)(F)F)C(=O)N1CCC[C@H]1C(=O)N[C@@H](Cc1ccccc1)C(=O)O [JFM V-0196B],Ki,"rat apelin receptor-EGFP [1]; Binding affinity Ki (nM), Table 7, additional experiments vs Table 2",0.08 ± 0.01 nM
same,Ki,"rat apelin receptor-EGFP [1]; Ki for the apelin receptor (affinity), competition with [125I]pE13F, CHO membranes",0.2 nM
same,Ki,rat apelin receptor-EGFP [1]; [9],0.21 ± 0.27 nM
same,IC50,rat apelin receptor-EGFP [2],3.13 ± 1.43 nM
same,EC50,rat apelin receptor-EGFP [3],0.41 ± 0.16 nM
same,EC50,rat apelin receptor-EGFP [4],0.89 ± 0.61 nM
same,starting peptide remaining after 4 h,"in vitro; Table 4, mouse plasma, 37° C.",100% of starting peptide after 4 h
same,half-life at 5 μM,"in vitro; mouse, plasma",> 4 h
same,vasorelaxing effect at maximal concentration,[5]; 100 μM,60±3%
same,arteriolar diameter after application to Ang II-precontracted arterioles,"[6]; 500 nM, 1 nM Ang II, from 12.97±0.50 μm",13.88±0.45 μm
same,vasorelaxant effect in the presence of L-NAME,"[6]; L-NAME, NO synthase inhibitor",not significantly changed
same,"duration of the hypotensive effect, fold higher than K17F",[7]; 15 nmol i.v.,27 fold
same,"maximal hypotensive response, fold higher than K17F",[7]; 15 nmol i.v.,9 fold
same,BP decrease at the plateau value after 30 min,"[7]; 15 nmol i.v., after 30 min",21 mmHg
same,"duration of the hypotensive effect, fold higher than K17F",[7]; [11],8 fold
same,"maximal hypotensive response, fold higher than K17F",[7]; [11],6.7 fold
same,time of maximal hypotensive response after injection,[7]; 15 nmol/rat i.v.,10 min
same,Maximal decrease in BP (mmHg),"[7]; Table 5, 15 nmol i.v.",−52 mmHg
same,Time For maximal BP decrease,"[7]; Table 5, 15 nmol i.v.",10 min
same,Time to return to a plateau value,"[7]; Table 5, 15 nmol i.v.",33 min
same,plateau value reached (in brackets),"[7]; Table 5, 15 nmol i.v.",−21 mmHg
same,effect on plasma AVP levels in euhydrated mice,"[8]; euhydrated mice, supramaximal dose 1 μg i.c.v.",no effect on plasma AVP levels
same,maximal decrease in AVP release,"[8]; water-deprived mice, 0.01 μg i.c.v.",−75%
"CSCC[C@H](NC(=O)[C@@H]1CCCN1C(=O)CNC(=O)[C@H](CCCCN)NC(=O)[C@H](Cc1c[nH]cn1)NC(=O)[C@H](CO)NC(=O)[C@H](CC(C)C)NC(=O)[C@H](CCCNC(=N)N)NC(=O)[C@@H]1CCCN1C(=O)[C@H](CCCNC(=N)N)NC(=O)[C@@H]1CCC(=O)N1)C(=O)N1CCC[C@H]1C(=O)N[C@@H](Cc1ccccc1)C(=O)O [pE13F, reference compound]",maximal relaxant effect,[5],62±6%
same,potency (pD2) of relaxation,[5],8.00±0.59

# — US20210206817A1, “Metabolically Stable Apelin Analogs in the Treatment of Disease Mediated by the Apelin Receptor” (priority 2014, published 2021)
